In patent publication US20240166627A1, “Terpyridinedione compound or salt thereof, and preparation method and application thereof” (SHENZHEN SALUBRIS PHARMACEUTICALS CO., LTD., priority 2021, published 2024):
Converted amounts (≈) assume the structure as drawn.

What was measured:
[1] = tested on: production of TNFα in U937; experiment: Releasing TNFα from U937 induced by LPS; type: cell-based; settings: Homo sapiens, U-937; PMA-differentiated U937, LPS 100 ng/ml, 4 h; read-out: IC50 value that the compound inhibits the production of TNFα
Source text: Cytokine regulation in human monocytes has shown that the p38 pathway is the key to the biosynthesis of a plurality of pro-inflammatory cytokines including TNFα, IL-1β and IL-6. Therefore, the inhibition of the p38 MAPK pathway is to reduce inflammatory response by reducing the biosynthesis of the pro-inflammatory cytokines. […] This is a reflection of the effect of the compound in the present invention to facilitate reduction of inflammation, which is useful in the treatment of various diseases, including chronic inflammatory diseases, acute inflammatory diseases, or self-inflammatory diseases. The potency and efficacy of the p38 inhibitor in blocking cytokine production are evaluated using a human U937 cell line.
A 1640 medium with an article number being A10491-01, Gibco; penicillin-streptomycin with an article number being 15140-122, Gibco; fetal bovine serum with an article number being 10099-141C, Gibco; PBS with an article number being 10010-031, Gibco; LPS with an article number being L2880, Sigma; PMA with an article number being P1585, Sigma; dimethyl sulfoxide with an article number being D8418-1L, Sigma; and a TNFα kit with an article number being K151QWD-4, MSD.
A 96-well plate with an article number being 3599, Corning; a plate-vibrating device with an article number being QB-9002, QILINBEIER; a centrifuge with an article number being 5810R, Eppendorf; a carbon dioxide incubator with an article number being 371, Thermo; a counter with an article number being C10281, Gibco; a microscope with an article number being CKX41, OLYMPUS; and an MSD plate reader with an article number being 1201 MESO SECTOR 600, MSD.
U937, ATCC with an article number being CRL-1593.2.
About 2 mg of a drug is weighted; a mother solution is prepared to 10 mM (which is calculated by free alkali) by means of DMSO; and the mother solution is diluted 10-fold to 1 mM, and then is successively diluted 4-fold to 250 μM, 62.5 μM, 15.6 μM, 3.9 μM, 0.97 μM, 0.24 μM, and 0.061 μM. The above series of diluted DMSO drugs is diluted 20-fold as working solutions by using media.
At Day 0, 10000/well inoculation is performed, stimulation is performed for 48 h with 20 ng/ml of PMA, and culture is performed at 37° C., 5% CO2. • At Day 2, 1. Supernatant is removed from differentiated U937, cleaning is performed once with PBS, and 96 μl of the 1640 medium is added. • 2. 2 μl of the compound containing (DMSO with a final concentration being 0.1%), and culture is performed for 30 min at 37° C., 5% CO2. • 3. 2 μl of LPS (a final concentration being 100 ng/ml) is added, cells are stimulated, and culture is performed for 4 h at 37° C., 5% CO2. • 4. Centrifugation is performed, supernatant is taken, and content of TNFα in the supernatant is determined through ELISA.
The content of TNFα corresponding to each well is calculated by using a standard curve in the kit.
The compound IC50 is calculated by using a GraphPad nonlinear fitting formula, and for an experimental result, refer to Table 1.

[2] = Determination of solubility; type: physicochemical; settings: aqueous buffer, thermodynamic from solid, 37° C. 1 h
Procedure: About 0.5 mg of a to-be-tested sample in a centrifuge tube is weighted, an appropriate amount of DMSO is added to completely dissolve the sample, and then methanol is added to make up to 1 ml.
(If there are more pH values to be investigated, the preparation method may be deduced by analogy).
3. The prepared control solution and test solution are simultaneously put into a 37° C. water bath and heated for 1 h, after 1 h, the solutions are taken out and cooled to room temperature, and then the solutions are filtered with a 0.22 μm filter membrane for sample injection.
4. The concentration of the sample in the test solution is calculated according to C=(A*(ms/vs))/AS, and experiment results are shown in Table 2.
Note: ms, vs and AS are the weight, volume and peak area of the sample in the control solution, respectively.
A is the peak area of the test solution.

[3] = biological target: p38α/MK2 complex (Homo sapiens, UniProt P49137+Q16539); experiment: p38α/MK2 complex kinase screening experiment (IMAP FP); type: biochemical; settings: p38α 0.2 nM, MK2 unactive 1 nM, HSP27 substrate 1 μM, ATP 10 μM; read-out: IC50 value that the compound inhibits p38α/MK2 complex
Sequence of p38α/MK2 complex (Q16539 whole entry): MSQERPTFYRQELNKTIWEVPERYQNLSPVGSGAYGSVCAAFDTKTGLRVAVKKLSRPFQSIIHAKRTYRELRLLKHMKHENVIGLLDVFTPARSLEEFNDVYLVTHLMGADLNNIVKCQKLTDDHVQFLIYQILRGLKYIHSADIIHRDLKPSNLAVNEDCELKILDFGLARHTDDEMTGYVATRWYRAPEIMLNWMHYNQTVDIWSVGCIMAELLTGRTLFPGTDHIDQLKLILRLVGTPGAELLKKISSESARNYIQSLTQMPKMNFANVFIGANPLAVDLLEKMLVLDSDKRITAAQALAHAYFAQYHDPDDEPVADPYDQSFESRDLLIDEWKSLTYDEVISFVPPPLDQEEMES
Sequence of p38α/MK2 complex (P49137 whole entry): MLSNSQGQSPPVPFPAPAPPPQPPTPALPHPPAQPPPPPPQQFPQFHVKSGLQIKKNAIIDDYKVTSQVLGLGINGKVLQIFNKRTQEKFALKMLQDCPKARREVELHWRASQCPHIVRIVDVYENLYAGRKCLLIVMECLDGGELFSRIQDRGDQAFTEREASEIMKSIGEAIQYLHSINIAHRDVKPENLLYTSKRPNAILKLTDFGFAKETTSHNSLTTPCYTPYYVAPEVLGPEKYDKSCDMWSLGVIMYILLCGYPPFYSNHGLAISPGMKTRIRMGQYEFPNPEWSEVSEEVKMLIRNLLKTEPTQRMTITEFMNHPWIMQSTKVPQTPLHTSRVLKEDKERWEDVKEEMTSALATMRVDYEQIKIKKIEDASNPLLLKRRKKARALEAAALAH
Procedure: A certain amount of a drug is weighted and prepared into a 10 mM of mother solution by using DMSO; the mother solution is diluted to 100 μM (100× working solution) in two steps; and then, the solution is diluted 3-fold to 33.33 μM, 11.11 μM, 3.70 μM, 1.23 μM, 0.41 μM, 0.14 μM, 0.046 μM, 0.015 μM, and 0.005 μM, successively. DMSO control is also arranged.
Then, a series of diluted DMSO drugs are diluted 25 folds with 1×IMAP Reaction Buffer as a 4× drug working solution.
10 gradient concentrations and 2 duplicated wells are set to each group of compounds; and a DMSO control group and a negative control group (DMSO, no ATP) are additionally set.
• c), after 1 h of incubation at room temperature, 1× Progressive Binding Solution is added to end the enzymatic reaction; after 30 min of incubation, a BMGPHERASTER FSX multifunctional microplate reader is used to detect a Fluorescence Polarization (FP) signal [FP(Ex485/Em520/Em520 nm)].

[4] = Pharmacokinetic experiment in Beagle dogs (IV and PO); type: in vivo; settings: male, dog, plasma
Source text: Polyethylene glycol 400 (batch number: GORKREUT, Saen Chemical Technology (Shanghai) Co., Ltd.); DMSO (batch number: 20200319, GHTECH (Guangdong) Co., Ltd.); and normal saline (batch number: C20052604, Jiangxi Kelun Pharmaceutical Co., Ltd.). An LC-MS instrument (Thermo Fisher Ultimate 3000 UPLC, TSQ QUANTUM ULTRA TSQ Quantum GC).
5 male Beagle dogs with weights being 5 kg to 7 kg, purchased from Beijing Mars Biotechnology Co., Ltd. […]
After the above mixture is given to the dogs through intragastric administration (n=3) or intravenous administration (n=2), about 1 mL of blood is collected from the forelimb or hindlimb vein with a scalp needle, respectively, at 5 min (intravenous administration only), 15 min, 30 min, 1 h, 2 h, 4 h, 6 h, 8 h, 24 h to put into blood collection tubes containing EDTA-K2 anticoagulant; centrifugation is performed for 10 min at 4000 rpm to separate plasma; and then the tubes are stored at −80° C. for testing.
A certain amount of a test sample is accurately weighted and dissolved with DMSO to 2 mg/mL, as a stock solution. The stock solution is diluted to 30000, 10000, 3000, 1000, 300, 100, 50, 30, and 10 ng/mL by using acetonitrile:water (1:1), to obtain standard curve working solutions. 5 μL of the working solution is added to 45 μL of blank canine plasma; and well mixing is performed through vortex, to prepare into standard curve samples equivalent to plasma concentrations of 3000, 1000, 300, 100, 30, 10, 5, 3, and 1 ng/mL. 30 μL of the standard curve sample and the collected plasma sample (plasma collected at 5 min, 15 min, and 30 min of intravenous administration is diluted 5-fold) are added to 150 μL of a propranolol acetonitrile solution (internal standard, 50 ng/mL) to precipitate protein, then 100 μL of water is added to well mix through vortex; centrifugation is performed for 5 min at 4000 rpm; and supernatant is taken for LC-MS analysis. LC-MS detection conditions include the following.
Chromatographic column: Waters ACQUITY™ PREMIER HSS T3, 50*2.1 mm, 1.8 μm.
Mobile phase A: water (0.1% formic acid); mobile phase B: acetonitrile; flow rate: 0.5 mL/min; and gradient elution is shown in Table 3 below.
After LC-MS detection of blood drug concentration, and a non-compartment model of WinNonlin 6.1 software is adopted to calculate pharmacokinetic parameters of beagle dogs after administration.

SMILES | IC50 [1] | IC50 [3] | further results
Cc1cnc(-n2cccc(C(C)(C)O)c2=O)cc1-n1c(C)cc(OCc2ccccn2)c(Cl)c1=O [Embodiment 3] | 14.7 nM |  | solubility at 1 h ([2]; pH = 2.0, PBS buffer): 1290 µg/mL (≈ 2610 µM); solubility at 1 h ([2]; pH = 7.4, PBS buffer): 140 µg/mL (≈ 284 µM)
Cc1cnc(-n2cccc(C(C)(C)O)c2=O)cc1-n1c(C)cc(OCc2ncc(F)cc2F)cc1=O [Embodiment 2, 4″-((3,5-difluoropyridine-2-yl)methoxy)-3-(2-hydroxypropane-2-yl)-5′,6″-dimethyl-2H,2″H-[1,2′:4′,1″-terpyridine]-2,2″-diketone] |  |  | solubility at 1 h ([2]; pH = 2.0, PBS buffer): 192 µg/mL (≈ 388 µM); solubility at 1 h ([2]; pH = 7.4, PBS buffer): 234 µg/mL (≈ 474 µM)
Cc1cnc(-n2cccc(C(C)(C)O)c2=O)cc1-n1c(C)cc(OCc2ncc(Br)cc2F)c(Cl)c1=O [Embodiment 16, 3″-chloro-4″-((3-fluoro-5-bromopyridine-2-yl)methoxy)-3-(2-hydroxypropane-2-yl)-5′,6″-dimethyl-2H,2″H-[1,2′:4′,1″-terpyridine]-2,2″-diketone] | 3.31 nM | 3.35 nM | 
Cc1cnc(-n2cccc(C(C)(C)O)c2=O)cc1-n1c(C)cc(OCc2ncc(F)cc2F)c(Cl)c1=O (single isomer, unassigned) [Comparative example 1A, reference compound] |  | 0.53 nM | 
Cc1cnc(-n2cccc(C(C)(C)O)c2=O)cc1-n1c(C)cc(OCc2cccc(F)c2F)c(Cl)c1=O [Embodiment 17, 3″-chloro-4″-((2,3-difluorobenzyl)oxy)-3-(2-hydroxypropane-2-yl)-5′,6″-dimethyl-2H,2″H-[1,2′:4′,1″-terpyridine]-2,2″-diketone] | 1.73 nM | 1.33 nM | 
CCc1cnc(-n2cccc(C(C)(C)O)c2=O)cc1-n1c(C)cc(OCc2ncc(F)cc2F)c(Cl)c1=O [Embodiment 42, 3″-chloro-5′-ethyl-4″-((3,5-difluoropyridine-2-yl)methoxy)-3-(2-hydroxypropane-2-yl)-6″-methyl-2H,2″H-[1,2′:4′,1″-terpyridine]-2,2″-diketone] |  | 3.14 nM | 
CCC(C)(O)c1cccn(-c2cc(-n3c(C)cc(OCc4ncc(F)cc4F)c(Cl)c3=O)c(C)cn2)c1=O (stereo not shown) [Embodiment 26, 3″-chloro-4″-((3,5-difluoropyridine-2-yl)methoxy)-3-(2-hydroxybutane-2-yl)-5′,6″-dimethyl-2H,2″H-[1,2′:4′,1″-terpyridine]-2,2″-diketone] | 2.84 nM | 2.26 nM | 
Cc1cnc(-n2cccc(C(C)(C)O)c2=O)cc1-n1c(C)cc(OCc2ncc(F)cc2F)c(Cl)c1=O (racemic) [Embodiment 1, 3″-chloro-4″-((3,5-difluoropyridine-2-yl)methoxy)-3-(2-hydroxypropane-2-yl)-5′,6″-dimethyl-2H,2″H-[1,2′:4′,1″-terpyridine]-2,2″-diketone] |  |  | AUC(0-t) ([4]; IV 1 mg/kg): 2870 ng·h/mL; Cmax ([4]; IV 1 mg/kg): 1510 ng/mL; clearance ([4]; IV 1 mg/kg): 6.15 mL/min/kg; bioavailability ([4]; PO 5 mg/kg vs IV 1 mg/kg): 229%
Cc1cnc(-n2cccc(C3CCOCC3)c2=O)cc1-n1c(C)cc(OCc2ncc(F)cc2F)c(Cl)c1=O [Embodiment 40, 3″-chloro-4″-((3,5-difluoropyridine-2-yl)methoxy)-5′,6″-dimethyl-3-(tetrahydro-2H-pyran-4-yl)-2H, 2″H-[1,2′:4′,1″-terpyridine]-2,2″-diketone] |  | 2.85 nM | 
Cc1cnc(-n2cccc(C(C)(C)O)c2=O)cc1-n1c(C)cc(OCc2ncc(F)cc2F)c(Br)c1=O [Embodiment 41, 3″-bromo-4″-((3,5-difluoropyridine-2-yl)methoxy)-3-(2-hydroxypropane-2-yl)-5′,6″-dimethyl-2H,2″H-[1,2′:4′,1″-terpyridine]-2,2″-diketone] |  | 1.58 nM | 
Cc1cnc(-n2cccc(C(C)(C)O)c2=O)cc1-n1c(C)cc(OCc2ncccc2F)c(Cl)c1=O [Embodiment 20, 3″-chloro-4″-((3-fluoropyridine-2-yl)methoxy)-3-(2-hydroxypropane-2-yl)-5′,6″-dimethyl-2H,2″H-[1,2′:4′,1″-terpyridine]-2,2″-diketone] | 6.86 nM |  | solubility at 1 h ([2]; pH = 2.0, PBS buffer): 769 µg/mL (≈ 1500 µM); solubility at 1 h ([2]; pH = 7.4, PBS buffer): 773 µg/mL (≈ 1510 µM)
